The record followed here is US9663480B2, “BIS-MMF derivatives” (RATIOPHARM GMBH, priority 2013, dated 2017).

This series can be described thus: Kinetics of MMF-release during incubation in intestinal fluid from the minipig (LC-MS quantification of MMF). The class given is in vitro ADME, Gottingen SPF minipig. The note with it: diluted small intestinal fluid (1/20 v/v with 50 mM KH2PO4, pH 6.8), 37° C., samples at 0-120 min; FIG. 1; DMF as reference. On the procedure: Investigation and Comparision of the Kinetics of MMF-Release of the Different Compounds of the Present Invention and DMF During Incubation in Intestinal Fluid from the Minipig
Intestinal fluid samples were prepared at CiToxLAB Scantox A/S. The samples were taken from 1 female Gottingen SPF minipig from CiToxLAB Scantox A/S standard stock, originally obtained from Ellegaard Gottingen Minipigs A/S, DK-4261 Dalmose, Denmark. The minipig was 10 months old and the body weight was 21 kg. The minipig was identified by an individual number tagged to the pinna of one ear (animal number is documented in the raw data).
The minipig was fasted for approximately 28 hours before sampling of intestinal fluid. […]
Incubations were continued and in case the result of analysis of the 120 min indicated the presence of remaining intact MMF prodrug, additional samples were taken (t=360 or 420 min and at 1,260 or 1,320 min) and analysed.
The concentration/peak area ratio data pairs were subjected to regression analysis with 1/x weighting and the resulting calibration equation was used to quantify the MMF content in incubation samples.

Turning to `COC(=O)/C=C/C(=O)OCCN1CCN(CCOC(=O)/C=C/C(=O)OC)CC1` [Example 1, (E)-But-2-enedioic acid-2-{4-[2-((E)-3-methoxycarbonyl-acryloyloxy)-ethyl]-piperazin-1-yl}-ethyl ester methyl ester], the “hydrolysis to MMF (MMF release) compared with DMF” value is reported as “substantially the same hydrolysis to MMF than DMF”.
